Assay results published in the NIST ThermoML archive (doi:10.1021/acs.jced.7b00083).
± gives the expanded uncertainty stated by the source.

Test: molar enthalpy of vaporization or sublimation
Details: 298.15 K; Crystal; Static calorimetry

Compound `S=C1NCCN1` [imidazolidine-2-thione] has a molar enthalpy of 25.7 ± 0.359 kcal/mol.
